The text below walks through data of patent US20040186089A1 (priority 2001, published 2004).

In assay [1] the test system is Bacillus anthracis. Conditions: cited from earlier work.
Assay [2] concerns Bacillus thuringiensis. Conditions: cited from earlier work.
The test system of assay [3] is Bacillus anthracis ATCC 14578. It is filed as cell-based. As to conditions: for MIC: unit assumed.
Assay [4] has as its system Bacillus anthracis. Conditions: in vivo; cited from earlier work.
Assay [5] relates to Bacillus thuringiensis. It is filed as cell-based.
A further assay concerns Bacillus cereus. It is filed as cell-based.

Converted amounts (≈) assume the structure as drawn. “And” between values parts separate entries of the source, which are not always exact repeats. Equal entries are not always repeated.

Turning to gentamicin, in the assay with Bacillus anthracis [1], the “susceptibility of Bacillus anthracis” value is given as “susceptible”. In the case of `O=C(N[C@H](CO)[C@H](O)c1ccc([N+](=O)[O-])cc1)C(Cl)Cl` [chloramphenicol], the “susceptibility of Bacillus anthracis” value with Bacillus anthracis [1] is recorded as “susceptible”. For `CC[C@H]1OC(=O)[C@H](C)[C@@H](O[C@H]2C[C@@](C)(OC)[C@@H](O)[C@H](C)O2)[C@H](C)[C@@H](O[C@@H]2O[C@H](C)C[C@H](N(C)C)[C@H]2O)[C@](C)(O)C[C@@H](C)C(=O)[C@H](C)[C@@H](O)[C@]1(C)O` [erythromycin], the “susceptibility of Bacillus anthracis” value with Bacillus anthracis [1] is on record as “susceptible”. For `CC1(C)S[C@@H]2[C@H](NC(=O)[C@H](N)c3ccccc3)C(=O)N2[C@H]1C(=O)O` [ampicillin], the “resistance of Bacillus thuringiensis” value in the assay with Bacillus thuringiensis [2] is listed as “resistant”. In assay [3], `C[C@@H](O)[C@H]1C(=O)N2C(C(=O)O)=C(SCCN=CN)C[C@H]12` [Imipenem, [5R-[5α,6α(R*)]]-6-(1-hydroxyethyl)-3-[[2-[(iminomethyl)amino]ethyl]thio]-7-oxo-1-azabicyclo[3.2.0]hept-2-ene-2-carboxylic acid monohydrate] displayed an MIC of 0.047 µg/mL. Regarding `O=C(O)c1cn(C2CC2)c2cc(N3CCNCC3)c(F)cc2c1=O` [Ciprofloxacin], the “resistance of Bacillus thuringiensis” value with Bacillus thuringiensis [2] is listed as “not resistant”. In addition, the response of people entry in the assay with Bacillus anthracis [4] is reported as “responded well”. For the same compound, the MIC in assay [3] is 0.064 µg/mL (≈ 0.193 µM). In the case of Penicillin, the “resistance of Bacillus thuringiensis” value with Bacillus thuringiensis [2] was “resistant”. Besides, in the assay with Bacillus anthracis [1], the “susceptibility of Bacillus anthracis” value is given as “susceptible”. The MIC in assay [3] came out at 0.047 µg/mL.

For the compound `C[C@@H](O)[C@H]1C(=O)N2C(C(=O)O)=C(S[C@@H]3CN[C@H](C(=O)Nc4cccc(C(=O)O)c4)C3)[C@H](C)[C@H]12` [Ertapenem, (1R,5S,6S,8R,2′S,4′S)-2-(2-(3-carboxyphenylcarbamoyl)pyrrolidin-4-ylthio)-6-(1-hydroxyethyl)-1-methylcarbapenem-3-carboxylic acid], in assay [3], the “susceptibility of Bacillus anthracis” value is listed as “susceptible” and the MIC is 0.032 µg/mL (≈ 0.0673 µM).

The compound `CN(C)[C@@H]1C(O)=C(C(N)=O)C(=O)[C@@]2(O)C(O)=C3C(=O)c4c(O)cccc4[C@@](C)(O)[C@H]3C[C@@H]12` [Tetracycline] returned an MIC in assay [3] of 0.064 µg/mL (≈ 0.144 µM). Same read-out and setting: then `CO[C@@]1(NC(=O)Cc2cccs2)C(=O)N2C(C(=O)O)=C(COC(N)=O)CS[C@@H]21` [Cefoxitin], with 6 µg/mL (≈ 14 µM). Turning to `CCn1cc(C(=O)O)c(=O)c2cc(F)c(N3CCNCC3)cc21` [Norfloxacin], the “Disk Diffusion zone” value in the assay on Bacillus thuringiensis [5] is 27 mm and 24 mm; in the assay with Bacillus cereus, 22 mm and 23 mm and 21 mm and 25 mm.
